According to patent US10562842B2, “Use of polyaminoisoprenyl derivatives in antibiotic or antiseptic treatment” (UNIVERSITE D'AIX-MARSEILLE, priority 2011, dated 2020):

Legend:
[1] = system: Enterobacter aerogenes MDR Ea289; experiment: MIC of antibiotics ± test compound (MIC ratio), micro-broth dilution; type: cell-based; conditions: for MIC ratio (*) on Ea289 Chl / Effective concentration (mM) for a MIC ratio of chloramphenicol ≥ 8 on Ea289: chloramphenicol; for MIC ratio (*) on Ea289 Chl / MIC ratio(*) on Ea289 Ery / MIC ratio (*) on Ea289 Nal: compound at MIC/4; for efficient concentration, times lower than the control PAβN: chloramphenicol MIC ratio of 8 on Ea289; for activity, effective concentration compared with PAβN to reach a MIC ratio of 8: chloramphenicol on Ea289; for MIC ratio(*) on Ea289 Ery: erythromycin; for MIC ratio (*) on Ea289 Nal: nalidixic acid
Experimental: The process consists of treating the MDR bacteria with the compounds of the invention in the presence of antibiotics.
(§1) Susceptibilities to antibiotics and compounds were determined in microplates by broth dilution method, as previously described. Minimal Inhibitory Concentrations (MICs) were determined with an inoculum of 10^6 CFU in 200 μL of MH broth containing two-fold serial dilutions of each drug. […] All MIC determinations were repeated at least three times in independent experiments.
The MICs of chloramphenicol±test compounds (MIC/4) were determined by the micro-broth dilution method (9). All MIC determinations were repeated at least three times in independent experiments. The MIC ratio corresponds to the ratio of the MIC of an antibiotic alone to the MIC of the same antibiotic in the presence of the tested compound (at MIC/4).
The compounds listed in Table 2 were tested for their ability to decrease the chloramphenicol MIC of Ea289, an Enterobacter aerogenes MDR strain (1). Each compound was first tested at MIC/4. […] All MIC determinations were repeated at least three times in independent experiments.
(§2) For reminder, the MIC ratio corresponds to the ratio of the MIC of the assessed antibiotic alone to the MIC of the same antibiotic in the presence of the tested compound (at MIC/4).

[2] = system: Salmonella Thyphimurium MDR BN10055; experiment: as above; type: cell-based, Salmonella enterica serovar Typhimurium; conditions: compound at MIC/4; for MIC ratio (*) on BN10055 Chl: chloramphenicol; for MIC ratio (*) on BN10055 Dox: doxycycline; for MIC ratio (*) on BN10055 Nal: nalidixic acid; for MIC ratio(*) on BN10055 Ery: erythromycin
Experimental: (§3) The Enterobacter aerogenes Ea289 strain is a Kans derivative of the MDR clinical isolate Ea27, the acrB mutant, EaEP294, was constructed from Ea289. Multidrug-resistant Salmonella enterica serovar Typhimurium DT104 strains (BN10055) was isolated from cattle in France, the isogenic acrB derivative mutant, BN10055ΔacrB, was constructed from BN10055. Strains were maintained at −80° C. in 25% (v/v) glycerol for cryoprotection. Bacteria were routinely grown in Mueller-Hinton (MH) broth at 37° C.
as §1
(§4) […] All MIC determinations were repeated at least three times in independent experiments. The MIC ratio corresponds to the ratio of the MIC of an antibiotic alone to the MIC of the same antibiotic in the presence of the tested compound (at MIC/4).
as §2

[3] = Tolerance in mice, intraperitoneal route; type: in vivo; conditions: for tissue anomaly (liver, lung, kidney, intestine): day 2, Compound 5 8.8 mg/kg, 8 1.46 mg/kg, 11 0.45 mg/kg, 14 0.35 mg/kg, 12 6.3 mg/kg
Experimental: Mice were administered with increasing doses of test compounds by intraperitoneal route.
The mice were sacrificed on day 2 after the injection of the test compound and autopsied. No morphological anomaly was observed. Liver, lung, kidney and intestine of each mouse were fixed and analysed.

[4] = system: Enterobacter aerogenes MDR Ea289; experiment: MIC of antibiotics ± test compound (MIC ratio), micro-broth dilution; type: cell-based; conditions: compound at MIC/4, Set 2; for MIC ratio (*) on Ea289 Dox: doxycycline; for MIC ratio (*) on Ea289 Nal: nalidixic acid
[5] = system: Ea289; experiment: MIC by broth dilution (intrinsic MIC); type: cell-based, Enterobacter aerogenes; conditions: antibiotic alone
Experimental: as §1

[6] = system: Ea294; experiment: MIC by broth dilution (intrinsic MIC); type: cell-based, Enterobacter aerogenes; conditions: antibiotic alone
Experimental: as §1

[7] = system: BN10055; experiment: MIC by broth dilution (intrinsic MIC); type: cell-based, Salmonella enterica; conditions: antibiotic alone
Experimental: as §1

[8] = system: BN10055ΔacrB; experiment: MIC by broth dilution (intrinsic MIC); type: cell-based, Salmonella enterica; conditions: antibiotic alone
Experimental: as §1

[9] = system: CHO cells; experiment: Toxicity on CHO cultured cells; type: cell-based; conditions: for IC50: Cricetulus griseus, killing of 50% of the CHO cells after 24 hours of incubation
Experimental: The toxicity of each compound was determined on CHO cultured cells. Incubation of CHO cells was performed with serial dilution of compounds. The compounds are either solubilized in DMSO or in PBS. The IC50 corresponds to the concentration of compounds leading to a killing of 50% of the CHO cells after 24 hours of incubation.

[10] = system: Ea289ΔacrB (Ea294); experiment: MIC of antibiotics ± test compound (MIC ratio), micro-broth dilution; type: cell-based, Enterobacter aerogenes; conditions: compound at MIC/4, Set 1; for MIC ratio(*) on Ea289ΔacrB Chl: chloramphenicol; for MIC ratio(*) on Ea289ΔacrB Ery: erythromycin; for MIC ratio(*) on Ea289ΔacrB Nal: nalidixic acid
Experimental: as §3, §1, §4, §2

[11] = system: BN10055ΔacrB; experiment: as above; type: cell-based, Salmonella enterica serovar Typhimurium; conditions: compound at MIC/4, Set 1; for MIC ratio(*) on BN10055ΔacrB Chl: chloramphenicol; for MIC ratio(*) on BN10055ΔacrB Ery: erythromycin; for MIC ratio(*) on BN10055ΔacrB Nal: nalidixic acid
Experimental: as §3, §1, §4, §2

[12] = system: strain IV2571223 - Escherichia coli pig (sensible); experiment: MIC of antibiotics in the presence and absence of test compound, veterinary strains; type: cell-based; set-up: MIC for strain IV2571223, Doxycycline in the presence of test compound: unit not given beside the values; conditions: compound at the Concentration (μM) (2-50)
Experimental: (§5) For each strain and each antibiotic, the MICs were determined in the presence and in the absence of one test compound.

[13] = system: strain IV2571418 - Escherichia coli pig (resistant); experiment: as above; type: cell-based; set-up: MIC for strain IV2571418, Doxycycline in the presence of test compound: unit not given beside the values; conditions: compound at the Concentration (μM) (4-50)
Experimental: as §5

[14] = system: strain IV2570060 - Escherichia coli cattle (sensible); experiment: as above; type: cell-based; conditions: compound at the Concentration (μM) (4-50)
Experimental: as §5

[15] = system: strain IV2570533 - Escherichia coli cattle (resistant); experiment: as above; type: cell-based; conditions: compound at the Concentration (μM) (0.896-12.6)
Experimental: as §5

| Compound | MIC ratio (*) on Ea289 Chl ([1]; Set 2) | MIC ratio (*) on BN10055 Chl ([2]; Set 2) | MIC ratio (*) on BN10055 Dox ([2]; Set 2) | MIC ratio (*) on BN10055 Nal ([2]; Set 2) | tissue anomaly (liver, lung, kidney, intestine) [3] | MIC ratio (*) on Ea289 Dox [4] | MIC ratio (*) on Ea289 Nal [4] | IC50 [9] [mM] | Effective concentration (mM) for a MIC ratio of chloramphenicol ≥ 8 on Ea289 [1] [mM] | efficient concentration, times lower than the control PAβN [1] | activity, effective concentration compared with PAβN to reach a MIC ratio of 8 [1] | MIC ratio (*) on Ea289 Chl ([1]; Set 1) | MIC ratio(*) on Ea289 Ery ([1]; Set 1) | MIC ratio (*) on Ea289 Nal ([1]; Set 1) | MIC ratio(*) on Ea289ΔacrB Chl [10] | MIC ratio(*) on Ea289ΔacrB Ery [10] | MIC ratio(*) on Ea289ΔacrB Nal [10] | MIC ratio(*) on BN10055ΔacrB Chl [11] | MIC ratio(*) on BN10055ΔacrB Ery [11] | MIC ratio(*) on BN10055ΔacrB Nal [11] | other results |
| --- | --- | --- | --- | --- | --- | --- | --- | --- | --- | --- | --- | --- | --- | --- | --- | --- | --- | --- | --- | --- | --- |
| CC(C)=CCC/C(C)=C/CNCCCN [Compound 12, (3,7-Dimethyl-octa-2,6-dienyl)-propane-1,3-diamine] | 16 | 8 | 16 | 32 | no significant tissue anomaly | 16 | 4-8 | – | – | – | – | – | – | – | – | – | – | – | – | – | – |
| CC(C)=CCC/C(C)=C/C(=O)NCCCN(CCCN)CCCN [Compound 5] | – | – | – | – | no significant tissue anomaly | – | – | – | – | – | – | – | – | – | – | – | – | – | – | – | tissue observation at the highest dose ([3]; 35.25 mg/kg): slight vascular modifications |
| O=C(N[C@H](CO)[C@H](O)c1ccc([N+](=O)[O-])cc1)C(Cl)Cl [Chloramphenicol, reference compound] | – | – | – | – | – | – | – | – | – | – | – | – | – | – | – | – | – | – | – | – | Chl-MIC: Chloramphenicol Minimal Inhibitory Concentration, Ea289 [5]: 1024 mg/L; Chl-MIC: Chloramphenicol Minimal Inhibitory Concentration, Ea294 [6]: 64 mg/L; Chl-MIC: Chloramphenicol Minimal Inhibitory Concentration, BN10055 [7]: 256 mg/L; Chl-MIC: Chloramphenicol Minimal Inhibitory Concentration, BN10055ΔacrB [8]: 16 mg/L |
| CC(C)=CCC/C(C)=C/CC/C(C)=C/CNCCCNCCCCNCCCN [Compound 8, {3-[4-(3-Amino-propylamino)-butylamino]-propyl}-(3,7,11-trimethyl-dodeca-2,6,10-trienyl)-amine] | 8-16 | 16-32 | 8 | 64 | no significant tissue anomaly | 16 | 16-32 | 0.726 | 0.0078 | about 4.9 times | strong activity | 8-16 | 32 | >16 | 2 | 16 | 4 | 4 | 8 | 4 | MIC ratio (*) on BN10055 Chl ([2]; Set 1): >16; MIC ratio(*) on BN10055 Ery ([2]; Set 1): 8; MIC ratio (*) on BN10055 Nal ([2]; Set 1): 64 |
| CC(C)=CCC/C(C)=C/CC/C(C)=C/CNCCCN(CCCN)CCCN [Compound 9, {3-[Bis-(3-amino-propyl)-amino]-propyl}-(3,7,11-trimethyl-dodeca-2,6,10-trienyl)-amine] | 32 | 16 | 8 | 128 | – | 16 | 16 | 0.132 | 0.0078 | about 4.9 times | strong activity | 32 | 16-32 | 16 | 4 | 8 | 128 | 2 | 8 | 8 | MIC ratio (*) on BN10055 Chl ([2]; Set 1): 16; MIC ratio(*) on BN10055 Ery ([2]; Set 1): 32; MIC ratio (*) on BN10055 Nal ([2]; Set 1): 128 |
| CC(C)=CCCC(C)=CCNCCCNCCCCNCCCN (racemic) [Compound 10, {3-[4-(3-Amino-propylamino)-butylamino]-propyl}-(3,7-dimethyl-octa-2,6-dienyl)-amine] | 8 | 16 | 16 | 64 | – | 16 | 16 | 2.33 | 0.0078 | about 4.9 times | strong activity | 16 | 4 | 16 | 16 | 8 | 8 | 2 | 8 | 2 | IC50 on CHO cells, times higher than effective concentration ([9]; IC50 on CHO cells versus effective concentration on Ea289): about 300 times; MIC ratio (*) on BN10055 Chl ([2]; Set 1): 16; MIC ratio(*) on BN10055 Ery ([2]; Set 1): 4; MIC ratio (*) on BN10055 Nal ([2]; Set 1): 64; MIC for strain IV2571223, Doxycycline in the presence of test compound [12]: 0.0625; MIC for strain IV2571223, Tylosine in the presence of test compound [12]: 4; MIC for strain IV2571418, Doxycycline in the presence of test compound [13]: 2; MIC for strain IV2571418, Tylosine in the presence of test compound [13]: 16; MIC for strain IV2570060, Doxycycline in the presence of test compound [14]: 0.125; MIC for strain IV2570060, Tylosine in the presence of test compound [14]: 16; MIC for strain IV2570533, Doxycycline in the presence of test compound [15]: 2; MIC for strain IV2570533, Tylosine in the presence of test compound [15]: 8 |
